{"source": "patent US20250114367A1", "about": "“METHOD OF TREATING HAIR LOSS DISORDERS” (Sun Pharmaceutical Industries, Inc., priority 2023, published 2025)", "test_system": "adult subjects with moderate to severe AA", "experiment": "Phase III trial: Hair Satisfaction Patient Reported Outcome (SPRO)", "format": "in vivo, human", "design": "key to SPRO responders, treatment difference: Common Risk Difference (Mantel-Haenszel): difference in proportion of responders (satisfied or very satisfied)", "settings": "for SPRO Responders: No / SPRO Responders: Yes ('Very satisfied' or 'Satisfied') / SPRO Responses: 1 = Very Satisfied / SPRO Responses: 2 = Satisfied / SPRO Responses: 3 = Neither Satisfied Nor Dissatisfied / SPRO Responses: 4 = Dissatisfied / SPRO Responses: 5 = Very Dissatisfied / percentage of subjects with a ≥2 point change from baseline in SPRO / proportion of SPRO responders (very satisfied or satisfied) / percentage of SPRO responders: non-missing data; for SPRO responders, treatment difference: Common Risk Difference (Mantel-Haenszel): MI with MAR assumption", "text": "The SPRO is a single-item questionnaire answered by the subject and designed to measure how satisfied Alopecia Areata subjects are with their hair at the time of the assessment. Subjects answer questions on a scale of 1 to 5, representing “Very satisfied” to “Very dissatisfied.” Satisfaction categories 1-5 of the scale were defined as follows: 1=“Very Satisfied”; 2=“Satisfied”; 3=“Neither Satisfied nor Dissatisfied”; 4=Dissatisfied”; and 5=“Very Dissatisfied”.\nThe results of the SPRO was analyzed in three different ways: 1) the percentage of responders, 2) the change from baseline, and 3) the percentage of subjects achieving a ≥2.0 point change from baseline.\nA Phase III trial was conducted to assess the efficacy and safety of CTP-543 in adult subjects with moderate to severe AA. Approximately 440 adult male and female subjects 18 to 65 years of age, inclusive, with moderate to severe AA participated in the study. Subjects with definitive diagnosis of AA, and at least 50% hair loss, as defined by a SALT score ≥50, who met all of the inclusion criteria and none of the exclusion criteria participated in the study.\nThe Screening Period lasted up to 28 days prior to initiation of study drug. […] Randomization was stratified by scalp hair loss into 1 of the following 2 categories: 1) partial scalp hair loss (SALT ≥50 and <95), 2) complete or near complete scalp hair loss (SALT ≥95).\nThe key secondary efficacy endpoints were the percentage of responders (defined as “satisfied” or “very satisfied”) on the Hair Satisfaction Patient Reported Outcome (SPRO) scale at Week 24, 20, 16, 12, and 8.\nAdditional secondary efficacy endpoints included the following: • Relative change in SALT scores from baseline at Weeks 4, 8, 12, 16, 20, and 24. • Percentage of responders (defined as “much improved” or “very much improved”) using the Clinical Global Impression of Improvement (CGI-I) at Weeks 12, 16, 20, and 24. • Percentage of responders (defined as “much improved” or “very much improved”) using the Patient Global Impression of Improvement (PGI-I) at Weeks 12, 16, 20, and 24. • Change from baseline in the Clinical Global Impression of Severity (CGI-S) at Weeks 12, 16, 20, and 24. • Change from baseline in the Patient Global Impression of Severity (PGI-S) at Weeks 12, 16, 20, and 24. • Change from baseline on the Brigham Eyebrow Tool for Alopecia (BETA) score at Weeks 12 and 24. • Change from baseline on the Brigham Eyelash Tool for Alopecia (BELA) score at Weeks 12 and 24. • Percentage of subjects achieving at least a 75% relative reduction in SALT score from baseline at Weeks 12 and 24. • Percentage of subjects achieving at least a 90% relative reduction in SALT score from baseline at Weeks 12 and 24. • Percentage of responders (defined as “satisfied” or “very satisfied”) on the SPRO scale at Weeks 12, 16, and 20. • Change from baseline in the SPRO scale at Weeks 12, 16, 20, and 24. • Percentage of subjects achieving a ≥2-point change from baseline in the SPRO scale at Weeks 12, 16, 20, and 24. • Change from baseline on the individual items of the Hair Quality Patient Reported Outcome (QPRO) scale at Weeks 12, 16, 20, and 24. • Change from baseline in the depression scale of the Hospital Anxiety and Depression Scale (HADS) at Week 24. • Change from baseline in the anxiety scale of the HADS at Week 24. • Percentage of subjects achieving an absolute SALT score of ≤20 at Week 4. • Percentage of subjects achieving an absolute SALT score of ≤10 at Week 24 […]"}
{"smiles": "[2H]C1([2H])C([C@@H](CC#N)n2cc(-c3ncnc4[nH]ccc34)cn2)C([2H])([2H])C([2H])([2H])C1([2H])[2H]", "note": "[CTP-543, (R)-3-(4-(7H-pyrrolo[2,3-d]pyrimidin-4-yl)-1H-pyrazol-1-yl)-3-(cyclopentyl-2,2,3,3,4,4,5,5-d8) propanenitrile]", "values": [{"measurement": "SPRO score, LS mean change from baseline", "setting": "Week 12, 8 mg BID", "result": "−1.6"}, {"measurement": "SPRO score, LS mean change from baseline", "setting": "Week 12, 12 mg BID", "result": "−1.7"}, {"measurement": "SPRO score, LS mean change from baseline", "setting": "Week 16, 8 mg BID", "result": "−1.6"}, {"measurement": "SPRO score, LS mean change from baseline", "setting": "Week 16, 12 mg BID", "result": "−1.7"}, {"measurement": "SPRO score, LS mean change from baseline", "setting": "Week 20, 8 mg BID", "result": "−1.5"}, {"measurement": "SPRO score, LS mean change from baseline", "setting": "Week 20, 12 mg BID", "result": "−1.8"}, {"measurement": "SPRO score, LS mean change from baseline", "setting": "Week 24, 8 mg BID", "result": "−1.6"}, {"measurement": "SPRO Responders: No", "setting": "Week 24, 8 mg BID (N = 249)", "result": "122 (53.5) n (%)"}, {"measurement": "SPRO Responders: Yes ('Very satisfied' or 'Satisfied')", "setting": "Week 24, 8 mg BID (N = 249)", "result": "106 (46.5) n (%)"}, {"measurement": "SPRO Responses: 1 = Very Satisfied", "setting": "Week 24, 8 mg BID (N = 249)", "result": "40 (17.5) n (%)"}, {"measurement": "SPRO Responses: 2 = Satisfied", "setting": "Week 24, 8 mg BID (N = 249)", "result": "66 (38.9) n (%)"}, {"measurement": "SPRO Responses: 3 = Neither Satisfied Nor Dissatisfied", "setting": "Week 24, 8 mg BID (N = 249)", "result": "34 (14.9) n (%)"}, {"measurement": "SPRO Responses: 4 = Dissatisfied", "setting": "Week 24, 8 mg BID (N = 249)", "result": "34 (14.9) n (%)"}, {"measurement": "SPRO Responses: 5 = Very Dissatisfied", "setting": "Week 24, 8 mg BID (N = 249)", "result": "54 (23.7) n (%)"}, {"measurement": "SPRO responders, treatment difference: Common Risk Difference (Mantel-Haenszel)", "setting": "Week 24, 8 mg BID compared to Placebo", "result": 0.45}, {"measurement": "percentage of subjects with a ≥2 point change from baseline in SPRO", "setting": "Week 24, 8 mg BID", "result": 52.6, "unit": "%"}, {"measurement": "proportion of SPRO responders (very satisfied or satisfied)", "setting": "Week 24, 8 mg BID", "result": 46.5, "unit": "%"}, {"measurement": "SPRO score, LS mean change from baseline", "setting": "Week 24, 12 mg BID", "result": "−1.8"}, {"measurement": "SPRO Responders: No", "setting": "Week 24, 12 mg BID (N = 127)", "result": "58 (48.3) n (%)"}, {"measurement": "SPRO Responders: Yes ('Very satisfied' or 'Satisfied')", "setting": "Week 24, 12 mg BID (N = 127)", "result": "62 (51.7) n (%)"}, {"measurement": "SPRO Responses: 1 = Very Satisfied", "setting": "Week 24, 12 mg BID (N = 127)", "result": "24 (20.0) n (%)"}, {"measurement": "SPRO Responses: 2 = Satisfied", "setting": "Week 24, 12 mg BID (N = 127)", "result": "38 (31.7) n (%)"}, {"measurement": "SPRO Responses: 3 = Neither Satisfied Nor Dissatisfied", "setting": "Week 24, 12 mg BID (N = 127)", "result": "23 (19.2) n (%)"}, {"measurement": "SPRO Responses: 4 = Dissatisfied", "setting": "Week 24, 12 mg BID (N = 127)", "result": "18 (15.0) n (%)"}, {"measurement": "SPRO Responses: 5 = Very Dissatisfied", "setting": "Week 24, 12 mg BID (N = 127)", "result": "17 (14.2) n (%)"}, {"measurement": "SPRO responders, treatment difference: Common Risk Difference (Mantel-Haenszel)", "setting": "Week 24, 12 mg BID compared to Placebo", "result": 0.49}, {"measurement": "percentage of subjects with a ≥2 point change from baseline in SPRO", "setting": "Week 24, 12 mg BID", "result": 61.7, "unit": "%"}, {"measurement": "proportion of SPRO responders (very satisfied or satisfied)", "setting": "Week 24, 12 mg BID", "result": 51.7}, {"measurement": "percentage of SPRO responders", "setting": "week 12, 8 mg BID", "result": 43.2, "unit": "%"}, {"measurement": "percentage of subjects with a ≥2 point change from baseline in SPRO", "setting": "week 12, 8 mg BID", "result": 50.4, "unit": "%"}, {"measurement": "percentage of SPRO responders", "setting": "week 12, 12 mg BID", "result": 41.0, "unit": "%"}, {"measurement": "percentage of subjects with a ≥2 point change from baseline in SPRO", "setting": "week 12, 12 mg BID", "result": 59.0, "unit": "%"}, {"measurement": "percentage of SPRO responders", "setting": "week 16, 8 mg BID", "result": 41.0, "unit": "%"}, {"measurement": "percentage of subjects with a ≥2 point change from baseline in SPRO", "setting": "week 16, 8 mg BID", "result": 52.6, "unit": "%"}, {"measurement": "percentage of SPRO responders", "setting": "week 16, 12 mg BID", "result": 45.1, "unit": "%"}, {"measurement": "percentage of subjects with a ≥2 point change from baseline in SPRO", "setting": "week 16, 12 mg BID", "result": 57.4, "unit": "%"}, {"measurement": "percentage of SPRO responders", "setting": "week 20, 8 mg BID", "result": 40.1, "unit": "%"}, {"measurement": "percentage of subjects with a ≥2 point change from baseline in SPRO", "setting": "week 20, 8 mg BID", "result": 50.4, "unit": "%"}, {"measurement": "percentage of SPRO responders", "setting": "week 20, 12 mg BID", "result": 52.5, "unit": "%"}, {"measurement": "percentage of subjects with a ≥2 point change from baseline in SPRO", "setting": "week 20, 12 mg BID", "result": 63.6, "unit": "%"}]}
